Results from patent US8959984B2, “Proteome-wide quantification of small molecule binding to cellular target proteins” (priority 2007, dated 2015).

Tests used:
Test in all cases: binding to VI16742 beads (HeLa lysate, SILAC MS)
[1] = biological target: T1, TAO3 (TAOK3, IPI00410485) (Homo sapiens, UniProt Q9H2K8)
T1 construct: endogenous in cells; host or cells: HeLa S3
T1 sequence (Q9H2K8 1-898): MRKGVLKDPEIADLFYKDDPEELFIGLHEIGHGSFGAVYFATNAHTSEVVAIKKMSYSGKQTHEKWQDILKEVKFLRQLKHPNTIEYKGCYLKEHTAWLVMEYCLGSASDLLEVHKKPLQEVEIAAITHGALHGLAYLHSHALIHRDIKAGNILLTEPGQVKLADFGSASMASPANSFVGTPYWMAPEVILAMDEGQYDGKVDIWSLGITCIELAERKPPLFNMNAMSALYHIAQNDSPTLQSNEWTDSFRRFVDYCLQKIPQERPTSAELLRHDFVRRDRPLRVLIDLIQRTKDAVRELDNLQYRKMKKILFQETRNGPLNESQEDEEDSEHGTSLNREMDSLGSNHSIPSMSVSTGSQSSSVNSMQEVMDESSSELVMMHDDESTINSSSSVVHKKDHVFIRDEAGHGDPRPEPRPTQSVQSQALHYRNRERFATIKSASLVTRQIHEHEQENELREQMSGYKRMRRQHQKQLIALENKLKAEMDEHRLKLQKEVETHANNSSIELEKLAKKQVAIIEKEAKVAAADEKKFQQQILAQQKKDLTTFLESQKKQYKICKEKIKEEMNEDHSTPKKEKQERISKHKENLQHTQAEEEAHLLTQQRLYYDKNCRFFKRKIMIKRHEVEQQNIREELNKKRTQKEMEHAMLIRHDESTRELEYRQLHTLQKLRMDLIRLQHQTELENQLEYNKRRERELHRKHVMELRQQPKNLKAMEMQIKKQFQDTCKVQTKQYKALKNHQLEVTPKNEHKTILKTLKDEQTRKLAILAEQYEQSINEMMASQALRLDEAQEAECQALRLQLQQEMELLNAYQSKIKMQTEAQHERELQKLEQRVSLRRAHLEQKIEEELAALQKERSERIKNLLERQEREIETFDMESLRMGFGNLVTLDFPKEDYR
Method in brief: (§1)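 Kinases were captured on a resin carrying the broadly selective pyrido[2,3-d]pyrimidine-based kinase inhibitor. Proteins specifically retained by the inhibitor resin were scored as binders.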

[2] = biological target: T2, TNIK/ZC2 (TNIK, IPI00514275) (Homo sapiens, UniProt Q9UKE5)
T2 construct: endogenous in cells; host or cells: HeLa S3
T2 sequence (Q9UKE5 whole entry): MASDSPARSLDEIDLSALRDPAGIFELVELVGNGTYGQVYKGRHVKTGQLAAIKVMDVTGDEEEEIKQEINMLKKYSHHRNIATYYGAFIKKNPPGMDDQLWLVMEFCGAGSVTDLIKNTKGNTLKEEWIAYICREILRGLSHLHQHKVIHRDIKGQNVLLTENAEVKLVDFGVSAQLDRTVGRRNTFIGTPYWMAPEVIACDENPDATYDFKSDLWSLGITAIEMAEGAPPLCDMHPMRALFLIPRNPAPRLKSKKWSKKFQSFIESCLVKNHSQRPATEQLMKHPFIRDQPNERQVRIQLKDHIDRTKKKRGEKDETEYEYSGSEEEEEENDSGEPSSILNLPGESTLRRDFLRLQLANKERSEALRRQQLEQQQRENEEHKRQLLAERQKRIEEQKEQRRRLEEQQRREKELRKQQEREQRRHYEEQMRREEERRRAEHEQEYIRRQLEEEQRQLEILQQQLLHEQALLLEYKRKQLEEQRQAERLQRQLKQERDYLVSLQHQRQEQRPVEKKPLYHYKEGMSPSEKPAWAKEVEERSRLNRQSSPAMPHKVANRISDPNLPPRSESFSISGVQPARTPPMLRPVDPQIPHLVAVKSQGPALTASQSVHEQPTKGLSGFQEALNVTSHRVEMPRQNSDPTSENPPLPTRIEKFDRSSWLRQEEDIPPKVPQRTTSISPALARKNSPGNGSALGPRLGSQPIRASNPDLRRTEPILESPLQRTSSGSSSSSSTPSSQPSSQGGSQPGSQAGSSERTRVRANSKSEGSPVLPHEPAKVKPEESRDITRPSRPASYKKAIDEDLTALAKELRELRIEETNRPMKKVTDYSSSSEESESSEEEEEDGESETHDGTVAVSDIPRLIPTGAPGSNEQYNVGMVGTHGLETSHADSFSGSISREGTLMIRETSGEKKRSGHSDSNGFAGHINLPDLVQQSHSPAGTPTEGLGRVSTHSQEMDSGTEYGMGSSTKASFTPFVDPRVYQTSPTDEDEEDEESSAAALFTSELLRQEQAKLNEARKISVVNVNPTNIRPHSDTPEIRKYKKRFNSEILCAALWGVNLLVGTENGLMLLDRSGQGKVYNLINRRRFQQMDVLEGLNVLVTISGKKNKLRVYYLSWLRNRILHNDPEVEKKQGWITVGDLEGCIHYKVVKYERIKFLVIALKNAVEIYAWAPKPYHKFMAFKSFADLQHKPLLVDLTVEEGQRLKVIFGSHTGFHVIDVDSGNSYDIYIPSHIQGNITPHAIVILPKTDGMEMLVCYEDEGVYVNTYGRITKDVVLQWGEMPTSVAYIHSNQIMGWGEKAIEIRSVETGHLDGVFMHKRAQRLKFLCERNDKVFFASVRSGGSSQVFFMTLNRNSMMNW
Method in brief: as §1

ACLY (IPI00021290) = biological target: T3, ACLY (IPI00021290) (Homo sapiens, UniProt P53396)
T3 construct: endogenous in cells; host or cells: HeLa S3
T3 sequence (P53396 1-1101): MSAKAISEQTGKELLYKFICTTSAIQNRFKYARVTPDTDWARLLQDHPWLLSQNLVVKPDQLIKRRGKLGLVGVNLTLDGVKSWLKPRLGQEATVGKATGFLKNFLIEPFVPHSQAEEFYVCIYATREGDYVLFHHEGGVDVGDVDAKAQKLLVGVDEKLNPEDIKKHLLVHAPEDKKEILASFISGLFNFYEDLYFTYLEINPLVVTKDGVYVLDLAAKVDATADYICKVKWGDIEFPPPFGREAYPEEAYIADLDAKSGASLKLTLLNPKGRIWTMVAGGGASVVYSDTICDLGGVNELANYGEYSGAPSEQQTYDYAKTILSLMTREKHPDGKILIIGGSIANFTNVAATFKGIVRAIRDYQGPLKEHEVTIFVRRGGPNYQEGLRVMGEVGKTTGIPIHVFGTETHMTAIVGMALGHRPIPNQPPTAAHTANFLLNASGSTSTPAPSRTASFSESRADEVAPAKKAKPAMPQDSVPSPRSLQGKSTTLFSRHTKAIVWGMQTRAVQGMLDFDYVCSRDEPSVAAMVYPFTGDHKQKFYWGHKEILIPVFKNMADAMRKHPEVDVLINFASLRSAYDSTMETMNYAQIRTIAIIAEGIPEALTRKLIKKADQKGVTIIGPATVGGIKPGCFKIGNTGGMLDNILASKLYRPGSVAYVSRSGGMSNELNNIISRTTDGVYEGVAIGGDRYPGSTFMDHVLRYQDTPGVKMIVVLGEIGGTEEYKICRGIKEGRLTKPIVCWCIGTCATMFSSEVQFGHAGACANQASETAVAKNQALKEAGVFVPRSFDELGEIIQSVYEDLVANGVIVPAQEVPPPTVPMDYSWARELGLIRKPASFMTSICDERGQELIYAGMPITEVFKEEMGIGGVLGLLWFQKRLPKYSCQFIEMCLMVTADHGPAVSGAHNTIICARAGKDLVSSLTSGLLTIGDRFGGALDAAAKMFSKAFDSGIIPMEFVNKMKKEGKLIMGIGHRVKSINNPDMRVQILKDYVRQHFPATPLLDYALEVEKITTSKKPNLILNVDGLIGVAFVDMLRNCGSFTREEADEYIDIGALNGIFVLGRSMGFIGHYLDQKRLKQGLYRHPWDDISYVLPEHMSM
Method in brief: as §1

MAP2K6 (IPI00003814) = biological target: T4, MAP2K6 (IPI00003814) (Homo sapiens, UniProt P52564)
T4 construct: endogenous in cells; host or cells: HeLa S3
T4 sequence (P52564 1-334): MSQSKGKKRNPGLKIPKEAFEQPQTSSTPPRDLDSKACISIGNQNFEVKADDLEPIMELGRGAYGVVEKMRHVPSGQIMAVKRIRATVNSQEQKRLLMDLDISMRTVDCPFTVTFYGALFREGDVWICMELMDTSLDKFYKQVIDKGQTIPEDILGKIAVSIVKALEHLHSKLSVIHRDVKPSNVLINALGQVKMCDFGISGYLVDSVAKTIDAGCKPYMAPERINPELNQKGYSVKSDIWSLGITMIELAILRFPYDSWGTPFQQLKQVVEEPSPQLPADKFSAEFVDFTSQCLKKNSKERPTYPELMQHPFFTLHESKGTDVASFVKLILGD
Method in brief: as §1

ROCK2 (IPI00307155) = biological target: T5, ROCK2 (IPI00307155) (Homo sapiens, UniProt O75116)
T5 construct: endogenous in cells; host or cells: HeLa S3
T5 sequence (O75116 whole entry): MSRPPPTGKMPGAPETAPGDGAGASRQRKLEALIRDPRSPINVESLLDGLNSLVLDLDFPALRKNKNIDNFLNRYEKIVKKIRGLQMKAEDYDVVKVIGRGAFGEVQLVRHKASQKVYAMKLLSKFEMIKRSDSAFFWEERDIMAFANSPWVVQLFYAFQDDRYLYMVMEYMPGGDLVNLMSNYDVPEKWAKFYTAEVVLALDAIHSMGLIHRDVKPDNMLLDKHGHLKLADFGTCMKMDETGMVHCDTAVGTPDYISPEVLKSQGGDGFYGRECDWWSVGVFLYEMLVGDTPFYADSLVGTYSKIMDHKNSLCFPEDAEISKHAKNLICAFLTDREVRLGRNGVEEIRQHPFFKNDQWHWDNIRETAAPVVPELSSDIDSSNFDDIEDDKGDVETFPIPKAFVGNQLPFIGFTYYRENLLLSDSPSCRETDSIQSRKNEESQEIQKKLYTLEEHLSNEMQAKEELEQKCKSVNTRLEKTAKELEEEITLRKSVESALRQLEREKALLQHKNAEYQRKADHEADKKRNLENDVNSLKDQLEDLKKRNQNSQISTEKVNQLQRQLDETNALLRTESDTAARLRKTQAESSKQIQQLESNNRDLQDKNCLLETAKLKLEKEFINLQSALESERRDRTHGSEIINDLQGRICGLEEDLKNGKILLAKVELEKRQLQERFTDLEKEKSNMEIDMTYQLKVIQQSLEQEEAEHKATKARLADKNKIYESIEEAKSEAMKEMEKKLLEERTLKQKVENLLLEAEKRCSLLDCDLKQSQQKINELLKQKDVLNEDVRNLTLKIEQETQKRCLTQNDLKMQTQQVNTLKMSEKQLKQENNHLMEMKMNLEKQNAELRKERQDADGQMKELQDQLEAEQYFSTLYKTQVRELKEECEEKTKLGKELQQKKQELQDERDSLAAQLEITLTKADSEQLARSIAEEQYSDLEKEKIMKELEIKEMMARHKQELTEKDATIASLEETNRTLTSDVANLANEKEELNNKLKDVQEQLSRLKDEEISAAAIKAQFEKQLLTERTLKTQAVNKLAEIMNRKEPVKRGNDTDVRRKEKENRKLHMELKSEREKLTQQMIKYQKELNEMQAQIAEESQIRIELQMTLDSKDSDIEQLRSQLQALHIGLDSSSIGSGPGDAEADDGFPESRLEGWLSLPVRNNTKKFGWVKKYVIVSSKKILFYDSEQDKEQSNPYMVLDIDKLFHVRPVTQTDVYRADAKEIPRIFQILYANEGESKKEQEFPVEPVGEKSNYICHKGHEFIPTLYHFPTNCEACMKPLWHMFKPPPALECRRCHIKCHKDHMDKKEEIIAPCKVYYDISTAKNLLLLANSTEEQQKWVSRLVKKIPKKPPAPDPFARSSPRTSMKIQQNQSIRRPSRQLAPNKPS
Method in brief: as §1

[3] = control beads vs first incubation

In the case of `CC(C)n1c(=O)ccc2cnc(Nc3ccc(OCCN)cc3)nc21` [V16742], the “r (3 MG/1 MG LYSATE)” value ([1]; 3 mg vs 1 mg lysate) is reported as 2.95, the “rAVERAGE (CTRL/1 INC)” value [1, 3] is reported as 0.09 and the Ki ([1]; immobilized VI16742) is reported as 116 µM. For the same compound, the “rAVERAGE (2 INC/1 INC)” value ([1]; second vs first incubation) was 0.69, the “r (5 h/2.5 h INC. TIME)” value ([2]; 5 h vs 2.5 h incubation time) was 1.27 and the “rAVERAGE (CTRL/1 INC)” value [2, 3] was 0.19. The Ki ([2]; immobilized VI16742) was 108 µM, the “rAVERAGE (2 INC/1 INC)” value ([2]; second vs first incubation) was 0.67 and the “r (3 MG/1 MG LYSATE)” value (ACLY (IPI00021290); 3 mg vs 1 mg lysate) was 3.59. For the same compound, the “r (5 h/2.5 h INC. TIME)” value (ACLY (IPI00021290); 5 h vs 2.5 h incubation time) was 1.98, the “rAVERAGE (CTRL/1 INC)” value (ACLY (IPI00021290); [3]) was 0.06 and the Ki (ACLY (IPI00021290); immobilized VI16742) was 162 µM. For the same compound, the “rAVERAGE (2 INC/1 INC)” value (ACLY (IPI00021290); second vs first incubation) was 0.76, the “r (3 MG/1 MG LYSATE)” value (MAP2K6 (IPI00003814); 3 mg vs 1 mg lysate) was 2.41 and the “r (5 h/2.5 h INC. TIME)” value (MAP2K6 (IPI00003814); 5 h vs 2.5 h incubation time) was 1.36. The “rAVERAGE (CTRL/1 INC)” value (MAP2K6 (IPI00003814); [3]) was 0.05, the Ki (MAP2K6 (IPI00003814); immobilized VI16742) was 178 µM and the “rAVERAGE (2 INC/1 INC)” value (MAP2K6 (IPI00003814); second vs first incubation) was 0.77. For the same compound, the “r (3 MG/1 MG LYSATE)” value (ROCK2 (IPI00307155); 3 mg vs 1 mg lysate) was 3.18, the “r (5 h/2.5 h INC. TIME)” value (ROCK2 (IPI00307155); 5 h vs 2.5 h incubation time) was 1.74 and the “rAVERAGE (CTRL/1 INC)” value (ROCK2 (IPI00307155); [3]) was 0.08. The Ki (ROCK2 (IPI00307155); immobilized VI16742) was 255 µM and the “rAVERAGE (2 INC/1 INC)” value (ROCK2 (IPI00307155); second vs first incubation) was 0.83.
